Source: patent US20050239656A1, “Pyridine compounds or salts thereof and herbicides containing the same” (priority 2002, published 2005)

Columns and labels:
japanese bulrush = experiment: Test Example 3: paddy pot test, application under submerged conditions; format: in vivo, Scirpus juncoides; details: submerged application at 0.5 leaf stage, visually observed 14 days after application, 0 = non-treated, 100 = complete kill
Outline: (§1)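 After sowing seeds and planting wapato tubers in flooded paddy soil, an aqueous dilution of the formulated compound was added to the 3–4 cm flood water at early leaf stage. Percent growth control relative to the untreated plot was assessed visually on day 14.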

wheat = experiment: Test Example 2: soil surface treatment, upland pot test; format: in vivo, Triticum spp.; details: observed 20th to 28th day
Excerpt: Upland field soil was put into a 1/170,000 ha pot, and seed of various plants (barnyardgrass, crabgrass, green foxtail, redroot pigweed, prickly sida, velvetleaf, rice, wheat, corn, soybean) were sown. On the 1st day after the sowing, a wettable powder or emulsifiable concentrate having the compound of the present invention formulated in accordance with a usual formulation method, was weighed so that the active ingredient would be a predetermined amount, and diluted with water in an amount of 1,500 L/ha. The herbicide thus adjusted was applied by a small size sprayer for soil surface treatment. On the 20th to 28th days after the application of the herbicide, the growth of the respective plants was visually observed, and the herbicidal effects were evaluated by the growth controlling degrees (%) ranging from 0 (equivalent to the non-treated plot) to 100 (complete kill), whereby the results shown in Table 4, were obtained.

rice = experiment: as above; format: in vivo, Oryza sativa L.; details: observed 20th to 28th day
Outline: (§2)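 Herbicidal effect is given as percent growth control, assessed by eye 20 to 28 days post-spray against untreated plants (0) and full kill (100). Treatment: soil-surface application one day after sowing, formulated product diluted in 1,500 L/ha water, upland soil, 1/170,000 ha pots.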

soybean = experiment: as above; format: in vivo, Glycine max Merr.; details: observed 20th to 28th day
Outline: as §2

velvetleaf = experiment: as above; format: in vivo, Abutilon theophrasti MEDIC.; details: observed 20th to 28th day
Outline: as §2

redroot pigweed = experiment: as above; format: in vivo, Amaranthus retroflexus L.; details: observed 20th to 28th day
Outline: as §2

rice (var. Nihonbare) = experiment: Test Example 3: paddy pot test, transplanted rice; format: in vivo, Oryza sativa L.; details: applied 4th day after transplantation, visually observed 21st day after application, 0 = non-treated, 100 = complete kill
Outline: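 Rice (2-leaf stage) was transplanted 3 cm deep into puddled, leveled paddy soil under 3–4 cm flooding. On day 4 after transplanting, diluted wettable powder or emulsifiable concentrate was pipetted onto the water at a predetermined active-ingredient dose. Growth control (0 = untreated, 100 = complete kill) was scored visually 21 days later.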

green foxtail = experiment: Test Example 2: soil surface treatment, upland pot test; format: in vivo, Setaria viridis L.; details: observed 20th to 28th day
Outline: as §2

barnyardgrass [1] = experiment: as above; format: in vivo, Echinochloa crus-galli L.; details: observed 20th to 28th day
Outline: as §2

crabgrass = experiment: as above; format: in vivo, Digitaria sanguinalis L.; details: observed 20th to 28th day
Outline: as §2

barnyardgrass [2] = experiment: Test Example 3: paddy pot test, application under submerged conditions; format: in vivo, Echinochloa crus-galli L.; details: submerged application at 0.5 leaf stage, visually observed 14 days after application, 0 = non-treated, 100 = complete kill
Outline: as §1

prickly sida = experiment: Test Example 2: soil surface treatment, upland pot test; format: in vivo, Sida spinosa L.; details: observed 20th to 28th day
Outline: as §2

corn = experiment: as above; format: in vivo, Zea mays L.; details: observed 20th to 28th day
Outline: as §2

Row | Compound | Growth controlling degree (%) Japanese bulrush (japanese bulrush; active ingredient 250 g/ha) [%] | Growth controlling degree (%) wheat (wheat; active ingredient 250 g/ha) [%] | Growth controlling degree (%) Rice (rice; active ingredient 250 g/ha) [%] | Growth controlling degree (%) Soyabean (soybean; active ingredient 250 g/ha) [%] | Growth controlling degree (%) Velvetleaf (velvetleaf; active ingredient 250 g/ha) [%] | Growth controlling degree (%) Redroot pigweed (redroot pigweed; active ingredient 250 g/ha) [%] | Growth controlling degree (%) Rice (rice (var. Nihonbare); active ingredient 250 g/ha) [%] | Growth controlling degree (%) Green foxtail (green foxtail; active ingredient 250 g/ha) [%] | Growth controlling degree (%) Barnyardgrass (barnyardgrass [1]; active ingredient 250 g/ha) [%] | Growth controlling degree (%) Crabgrass (crabgrass; active ingredient 250 g/ha) [%] | Growth controlling degree (%) Barnyardgrass (barnyardgrass [2]; active ingredient 250 g/ha) [%] | Growth controlling degree (%) Prickly sida (prickly sida; active ingredient 250 g/ha) [%] | Growth controlling degree (%) Corn (corn; active ingredient 250 g/ha) [%] | also measured
1 | CC(C)C(c1cnccc1C(F)(F)F)N(C)S(=O)(=O)C=Cc1ccccc1 (racemic) [I-135] |  |  |  |  |  |  |  |  |  |  |  |  |  | Growth controlling degree (%) Japanese bulrush (japanese bulrush; active ingredient 500 g/ha): 100%; Growth controlling degree (%) wheat (wheat; active ingredient 500 g/ha): 10%; Growth controlling degree (%) Rice (rice; active ingredient 500 g/ha): 20%; Growth controlling degree (%) Soyabean (soybean; active ingredient 500 g/ha): 0%; Growth controlling degree (%) Velvetleaf (velvetleaf; active ingredient 500 g/ha): 30%; Growth controlling degree (%) Redroot pigweed (redroot pigweed; active ingredient 500 g/ha): 20%; Growth controlling degree (%) Rice (rice (var. Nihonbare); active ingredient 500 g/ha): 10%; Growth controlling degree (%) Green foxtail (green foxtail; active ingredient 500 g/ha): 70%; Growth controlling degree (%) Barnyardgrass (barnyardgrass [1]; active ingredient 500 g/ha): 80%; Growth controlling degree (%) Crabgrass (crabgrass; active ingredient 500 g/ha): 70%; Growth controlling degree (%) Barnyardgrass (barnyardgrass [2]; active ingredient 500 g/ha): 98%; Growth controlling degree (%) Prickly sida (prickly sida; active ingredient 500 g/ha): 50%; Growth controlling degree (%) Corn (corn; active ingredient 500 g/ha): 0%
2 | CC(C)C(c1cnccc1C(F)(F)F)N(C)S(=O)(=O)c1ccc(Br)cc1 (racemic) [I-136] | 70 | 10 | 50 | 10 | 30 | 10 | 0 | 95 | 70 | 90 | 100 | 50 | 20 | 
3 | CC(C)C(Br)C(=O)N(C)C(c1cnccc1C(F)(F)F)C(C)C (stereo not drawn) [Compound I-197] | 98 |  |  |  |  |  | 0 |  |  |  | 100 |  |  | Growth controlling degree (%) wheat (wheat; active ingredient 500 g/ha): 50%; Growth controlling degree (%) Rice (rice; active ingredient 500 g/ha): 40%; Growth controlling degree (%) Soyabean (soybean; active ingredient 500 g/ha): 10%; Growth controlling degree (%) Velvetleaf (velvetleaf; active ingredient 500 g/ha): 50%; Growth controlling degree (%) Redroot pigweed (redroot pigweed; active ingredient 500 g/ha): 90%; Growth controlling degree (%) Green foxtail (green foxtail; active ingredient 500 g/ha): 100%; Growth controlling degree (%) Barnyardgrass (barnyardgrass [1]; active ingredient 500 g/ha): 100%; Growth controlling degree (%) Crabgrass (crabgrass; active ingredient 500 g/ha): 100%; Growth controlling degree (%) Prickly sida (prickly sida; active ingredient 500 g/ha): 70%; Growth controlling degree (%) Corn (corn; active ingredient 500 g/ha): 20%
4 | CCC(Br)C(=O)N(C)C(c1cnccc1C(F)(F)F)C(C)C (stereo not drawn) [Compound I-202] | 98 | 40 | 60 | 35 | 40 | 80 | 10 | 95 | 100 | 100 | 98 | 70 | 50 | 
5 | CC(C)C(c1cnccc1C(F)(F)F)N(C)C(=O)C1CC1 (stereo not drawn) [Compound I-204] | 98 | 95 | 100 | 70 | 70 | 95 | 60 | 100 | 100 | 100 | 100 | 95 | 70 | 
6 | CC(C)=CC(=O)N(C)C(c1cnccc1C(F)(F)F)C(C)C (stereo not drawn) [Compound I-205] | 98 | 95 | 70 | 30 | 60 | 80 | 20 | 100 | 100 | 100 | 100 | 70 | 40 | 
7 | CC(C)C(c1cnccc1C(F)(F)F)N(C)C(=O)C(F)=Cc1ccccc1 (stereo not drawn) [Compound I-207] | 100 | 20 | 40 | 30 | 50 | 60 | 10 | 100 | 100 | 98 | 98 | 80 | 30 | 
8 | CC(C)C(c1cnccc1C(F)(F)F)N(C)C(=O)C(F)(F)F (stereo not drawn) [Compound I-209] | 100 | 70 | 70 | 50 | 60 | 60 | 35 | 100 | 100 | 98 | 98 | 70 | 50 | 
9 | CC(C)C(c1cnccc1C(F)(F)F)N(C)C(=O)CCBr (stereo not drawn) [I-201] | 98 | 60 | 70 | 40 | 40 | 70 | 10 | 100 | 100 | 100 | 98 | 60 | 40 | 
